Structures are written as SMILES.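 Compound exposure: 48 hours, 5 concentrations, 96-well plates. At the GI50, growth is halved. The concentration for full growth arrest is given as TGI.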 A value given as a limit tells only on which side of the number the result lay.

Some test systems named below: SK-MEL-5 melanoma; PC-3 prostate; OVCAR-4 ovarian; A498 renal; DU-145 prostate; HOP-62 NSCLC; SR leukemia; M14 melanoma; UO-31 renal; NCI-H522 lung.
Experiment in all cases: growth of human tumour cells (NCI), 48 h

Regarding `CC(=O)[C@@]1(O)CC[C@H]2[C@@H]3C[C@H](C)C4=CC(=O)C=C[C@]4(C)[C@@]3(F)[C@@H](O)C[C@@]21C`, the TGI in the test with SK-MEL-5 melanoma, in the test with PC-3 prostate, with OVCAR-4 ovarian, in the test with A498 renal, in the test on DU-145 prostate and in the test on HOP-62 NSCLC was more than 100 µM each time. Further, the TGI in the test with SR leukemia, with M14 melanoma, in the test with UO-31 renal and in the test on NCI-H522 lung was more than 100 µM throughout.
For the molecule `N#Cc1c(Cl)cc(Cl)n2c1nc1ccccc12`, the TGI is 32.7 µM in the test with SK-MEL-5 melanoma; 29.3 µM in the test on PC-3 prostate; 34 µM in the test on OVCAR-4 ovarian; 47.3 µM in the test with A498 renal; 31.8 µM in the test with DU-145 prostate; 51.7 µM with HOP-62 NSCLC. Also, the TGI in the test with SR leukemia was more than 29.6 µM; with M14 melanoma it was 24.5 µM; with UO-31 renal, 13.5 µM; in the test on NCI-H522 lung, 3.61 µM.
On to `COc1ccc(-c2nn(-c3ccc(NC(=O)Nc4cc(C(F)(F)F)cc(C(F)(F)F)c4)cc3)cc2-c2ccncc2)cc1Cl`, for which the GI50 with SK-MEL-5 melanoma is 1.93 µM; in the test with PC-3 prostate, 1.73 µM; in the test with OVCAR-4 ovarian, 2.82 µM; with A498 renal, 1.31 µM; with DU-145 prostate it was 4.25 µM; with HOP-62 NSCLC it was 3.68 µM. Also, the GI50 in the test with SR leukemia is 2.54 µM; with M14 melanoma it was 1.91 µM; in the test with UO-31 renal, 1.51 µM; with NCI-H522 lung, 1.9 µM. The TGI in the test on SK-MEL-5 melanoma is 4.34 µM; in the test with PC-3 prostate, more than 100 µM; in the test on OVCAR-4 ovarian it was 60.7 µM; in the test on A498 renal it was 5.32 µM; in the test on DU-145 prostate it was more than 100 µM; in the test with HOP-62 NSCLC, 15.1 µM. Moreover, the TGI in the test on SR leukemia is 6.56 µM; in the test with M14 melanoma it was 4.4 µM; in the test with UO-31 renal it was 6.33 µM; in the test with NCI-H522 lung it was 7.01 µM.
Turning to `C=CCOc1ccc(C2C(C(=O)OCC)C(=O)CC(C)(O)C2C(=O)OCC)cc1OC` (stereo not given), the TGI in the test with SK-MEL-5 melanoma, in the test with PC-3 prostate, in the test on OVCAR-4 ovarian, in the test with A498 renal, in the test on DU-145 prostate and in the test on HOP-62 NSCLC was more than 100 µM throughout. Also, the TGI with SR leukemia, with M14 melanoma, with UO-31 renal and in the test with NCI-H522 lung was more than 100 µM in each case.
With `C=C1CN2CC(=C)CN(C1)CS(=O)(=O)N1CC(=C)CN(CC(=C)C1)S(=O)(=O)N1CC(=C)CN(CC(=C)C1)S(=O)(=O)C2`, the TGI in the test with SK-MEL-5 melanoma is 48 µM; in the test on PC-3 prostate, 38.6 µM; with OVCAR-4 ovarian it was more than 100 µM; with A498 renal, more than 100 µM; in the test on DU-145 prostate it was more than 100 µM; with HOP-62 NSCLC, 53.7 µM. Besides, the TGI with SR leukemia, in the test with M14 melanoma, with UO-31 renal and in the test on NCI-H522 lung was more than 100 µM throughout.
Consider `CC(C)(C)OC(=O)NCCCNC1(c2cc3ccccc3s2)CCCCC1`, for which the TGI was found to be 27.3 µM with SK-MEL-5 melanoma; 47.6 µM in the test with PC-3 prostate; 29.5 µM in the test with OVCAR-4 ovarian; 29.8 µM in the test on A498 renal; 32.2 µM with DU-145 prostate; 28.5 µM in the test on HOP-62 NSCLC. The TGI was 28 µM with SR leukemia, 25 µM in the test on M14 melanoma, 25.4 µM with UO-31 renal and 32 µM in the test with NCI-H522 lung.
On to `CCN1CCC(O)(/C=C/c2ccc(C)cc2C)C(C(=O)/C=C/c2ccc(C)cc2C)C1` (stereo not given), for which the TGI in the test with SK-MEL-5 melanoma was 9.23 µM; with PC-3 prostate, 9.17 µM; in the test with OVCAR-4 ovarian, 7.99 µM; in the test with A498 renal it was 22.7 µM; in the test with DU-145 prostate, 10.5 µM; with HOP-62 NSCLC, 8.54 µM. In addition, the TGI stood at 7.94 µM in the test with SR leukemia, 35.7 µM in the test on M14 melanoma, 6.66 µM in the test with UO-31 renal and 3.73 µM in the test with NCI-H522 lung.
Regarding `Nc1ccc(S(=O)(=O)Nc2nccs2)cc1`, the TGI in the test on SK-MEL-5 melanoma, in the test with PC-3 prostate, in the test with OVCAR-4 ovarian, with A498 renal, with DU-145 prostate and in the test on HOP-62 NSCLC was more than 100 µM throughout. Moreover, the TGI in the test with SR leukemia, with M14 melanoma, with UO-31 renal and in the test with NCI-H522 lung was more than 100 µM throughout.
In the case of `CC12CCC(O)CC1CCC1C2CCC2(C)C(C(=O)CC(O)C(F)(F)F)CCC12` (stereo not given), the TGI with SK-MEL-5 melanoma was more than 100 µM; with PC-3 prostate it was more than 100 µM; in the test on OVCAR-4 ovarian, more than 100 µM; in the test with A498 renal it was 40.7 µM; with DU-145 prostate it was more than 100 µM; in the test with HOP-62 NSCLC, more than 95.1 µM. In addition, the TGI is 11.2 µM in the test on SR leukemia, more than 100 µM in the test on M14 melanoma, 11.1 µM in the test on UO-31 renal and more than 100 µM in the test with NCI-H522 lung.
`O=[N+]([O-])/C(C(Cl)=C(Cl)Cl)=C(\N1CCCCC1)n1cncn1`: the TGI with SK-MEL-5 melanoma came to 25.3 µM; in the test with PC-3 prostate, 31.7 µM; in the test on OVCAR-4 ovarian, 36.7 µM; in the test on A498 renal it was 31.4 µM; with DU-145 prostate, 30.3 µM; with HOP-62 NSCLC it was 37.7 µM. Besides, the TGI in the test with SR leukemia was more than 100 µM; with M14 melanoma it was 33.7 µM; in the test with UO-31 renal, 30.8 µM; with NCI-H522 lung it was 31.6 µM.
For the molecule `COc1ccc2c(cnc3c4cc(OC)c(OC)cc4ccc23)c1`, the TGI in the test on SK-MEL-5 melanoma, in the test with PC-3 prostate, in the test with OVCAR-4 ovarian, in the test on A498 renal, in the test on DU-145 prostate and in the test with HOP-62 NSCLC was more than 100 µM throughout. Moreover, the TGI with SR leukemia, in the test on M14 melanoma, in the test with UO-31 renal and in the test on NCI-H522 lung was more than 100 µM each time.
`C=C([C@@]1(O)C[C@H]2[C@H](CCC2(OC)OC)[C@@H]2c3ccccc3O[C@@H]21)[Si](C)(C)C`: the TGI in the test on SK-MEL-5 melanoma, with PC-3 prostate, with OVCAR-4 ovarian, in the test with A498 renal, with DU-145 prostate and in the test with HOP-62 NSCLC was more than 100 µM throughout. In addition, the TGI with SR leukemia, in the test on M14 melanoma, in the test on UO-31 renal and in the test with NCI-H522 lung was more than 100 µM each time.
For the molecule `O=C(O)/C=c1/c2ccccc2n2nc3ccccc3c12`, the TGI in the test with SK-MEL-5 melanoma was 30.4 µM; in the test on PC-3 prostate it was more than 100 µM; in the test with OVCAR-4 ovarian it was 70.1 µM; in the test with A498 renal, 46 µM; in the test with DU-145 prostate it was more than 100 µM; with HOP-62 NSCLC, more than 100 µM. For the same molecule, the TGI with SR leukemia was 49.2 µM; with M14 melanoma, more than 100 µM; in the test with UO-31 renal, more than 100 µM; with NCI-H522 lung, 60 µM.
With `C#C[C@]1(O)CC[C@H]2[C@@H]3CCC4=C/C(=N/OC(=O)c5cccc6c(=O)c7ccccc7[nH]c56)CC[C@@H]4[C@H]3CC[C@@]21C`, the TGI in the test with SK-MEL-5 melanoma is 45.8 µM; in the test with PC-3 prostate it was more than 100 µM; in the test with OVCAR-4 ovarian, more than 100 µM; with A498 renal, more than 100 µM; with DU-145 prostate it was more than 100 µM; with HOP-62 NSCLC, more than 100 µM. Also, the TGI is 33.2 µM with SR leukemia, more than 100 µM in the test on M14 melanoma, more than 100 µM with UO-31 renal and 84.1 µM with NCI-H522 lung.
In the case of `CC(=O)O[C@H]1CC[C@@]2(C)C(=CC[C@H]3[C@@H]4C[C@H](N5CCOCC5)[C@H](OC(C)=O)[C@@]4(C)CC[C@@H]32)C1`, the TGI with SK-MEL-5 melanoma, in the test on PC-3 prostate, in the test with OVCAR-4 ovarian, with A498 renal, in the test on DU-145 prostate and in the test with HOP-62 NSCLC was more than 100 µM throughout. The TGI in the test with SR leukemia, in the test on M14 melanoma, in the test with UO-31 renal and in the test with NCI-H522 lung was more than 100 µM in each case.
As to `O=C1c2cccnc2-c2nccc3c2c1nc1cc(Br)ccc13`, the TGI in the test on SK-MEL-5 melanoma was 0.263 µM; with PC-3 prostate, 1.12 µM; in the test with OVCAR-4 ovarian it was 0.563 µM; with A498 renal, 0.0659 µM; in the test with DU-145 prostate it was 0.421 µM; in the test on HOP-62 NSCLC it was 0.362 µM. For the same molecule, the TGI in the test with SR leukemia worked out at 0.0617 µM; with M14 melanoma, 0.163 µM; in the test with UO-31 renal, 0.568 µM; in the test on NCI-H522 lung it was 0.29 µM.
`C[N+]12CCCCC1C(CN1C(=O)Cc3c4ccccc4c(c4ccccc34)CC1=O)CCC2` (stereo not given): the TGI in the test on SK-MEL-5 melanoma, in the test with PC-3 prostate, in the test with OVCAR-4 ovarian, with A498 renal, with DU-145 prostate and with HOP-62 NSCLC was more than 100 µM in each case. For the same molecule, the TGI with SR leukemia, in the test with M14 melanoma, in the test on UO-31 renal and in the test on NCI-H522 lung was more than 100 µM throughout.

Source of the values: PubChem BioAssay (NCI).
